Data set [1] concerns FOLR1 expression in NCI-H1437. Nature of the data set: Expression level of FOLR1 in NSCLC cell line after incubation with pemetrexed (flow cytometry, MFI). As to conditions: NCI-H1437, low folic acid medium, 72 hours. The format is cell-based, human. Here is the method: (§1) NSCLC cell lines such as NCI-H522 [American Type Culture Collection (hereinafter referred to as ATCC) No. CRL-5810], NCI-H838 (ATCC No. CRL-5844), NCI-H1437 (ATCC No. CRL-5872) and NCI-H2228 (ATCC No. CRL-5935) were cultured in a culture medium [RPMI1640 (GIBCO), 10% inactivated bovine serum (FCS, GIBCO)].
(§2) Next, cells were detached from culture flasks using TrypLE Express (GIBCO) and suspended in a folic acid-free medium [RPMI 1640 folate-free (GIBCO), 10% inactivated dialyzed FCS (dFCS, GIBCO)]. The cells were seeded to 25-cm^2 tissue culture (TC) flasks at 2.5×10^5 cells/4 mL.
(§3) After culturing each cell line under the above conditions, cells were detached using TrypLE Express, washed with phosphate buffer saline (PBS) and then suspended in FCM buffer (PBS containing 1 mmol/L EDTA, 0.05% sodium azide and 5% inactivated FCS).
(§4) Next, the cells were seeded in a 96-well plate at 1×10^5 cells per well and centrifuged at 1700 rpm for one minute. After removing the supernatant, an anti-human FOLR1 humanized antibody (HuRA15-7CTAcc antibody) (WO2014/087863) which was prepared at 10 μg/mL with FCM buffer was added to the cells and reacted for 30 minutes at 4° C.
(§5) After washing the cells, Anti-Human IgG-FITC (Jackson) which was diluted 100 times with the FCM buffer was added and reacted for 30 minutes at 4° C. After washing the cells again, the cells were suspended in the FCM buffer. The fluorescence intensities were analyzed with a flow cytometer (Beckman Coulter, Inc., FC500MPL) to determine the mean fluorescence intensity (MFI) of each cell.
(In general: In flow cytometry, cells or beads pass a laser one at a time.)

In data set [2] the test system is FOLR1 expression in NCI-H2228. Described as above. The format is cell-based, human. As to conditions: NCI-H2228, low folic acid medium, 72 hours. Here is the method: as §1, §2, §3, §4, §5
Data set [3] relates to FOLR1 expression in NCI-H522. The data set is described as above. It counts as cell-based, human. As to conditions: NCI-H522, low folic acid medium, 0, 10 or 1000 nmol/L pemetrexed, 72 hours. How it is done:
as §1, §2, §3, §4, §5

Data set [4] relates to FOLR1 expression in NCI-H838. Described as above. The format is cell-based, human. The note with it: NCI-H838, low folic acid medium, 0, 10 or 1000 nmol/L pemetrexed, 72 hours. How it is done:
as §1, §2, §3, §4, §5

For data set [5], the system named is FOLR1 expression in IGR-OV1. Nature of the data set: Expression level of FOLR1 in ovarian cancer cell line after incubation with pemetrexed. It counts as cell-based, human. How it is done: as §3, §4, §5
(§6) First, SKOV-3 [American Type Culture Collection (hereinafter referred to as ATCC) No. HTB-77], MCAS (JCRB cell No. JCRB0240), NIH:OVCAR-3 (ATCC No. HTB-161) and IGR-OV1 (National Cancer Institute), which are ovarian cancer-derived cell lines, were cultured in the culture medium.

For data set [6], the system named is FOLR1 expression in MCAS. Described as above. It counts as cell-based, human. How it is done: as §3, §4, §5, §6
Data set [7] concerns FOLR1 expression in OVCAR-3. Described as above. As to conditions: OVCAR-3 [FIG. 2(C)], low folic acid medium, regardless of the final pemetrexed concentration. The format is cell-based, human. How it is done:
as §3, §4, §5, §6

The subject of data set [8] is FOLR1 expression in SKOV-3. Described as above. It counts as cell-based, human. How it is done: as §3, §4, §5, §6
The subject of data set [9] is FOLR1 expression in HEC-1-A. Kind of data set: Expression level of FOLR1 in endometrial cancer cell line after incubation with pemetrexed. It counts as cell-based, human. Here is the method:
(§7) Endometrial cancer-derived cell line MES-SA (ATCC No. CRL-1976) and HEC-1-A (ATCC No. HTB-112) were cultured in McCoy's 5A medium (ATCC) containing 10% FCS (GIBCO), and HEC-1-B (ATCC No. HTB-113) was cultured in Eagle's Minimum Essential Medium (ATCC) containing 10% FCS (GIBCO).
(§8) Also, a flow cytometer manufactured by Becton, Dickinson and Company (FACSVerse) was used instead of the flow cytometer manufactured by Beckman Coulter, Inc. (FC500MPL).

Data set [10] concerns FOLR1 expression in HEC-1-B. Described as above. The format is cell-based, human. How it is done: as §7, §8
The subject of data set [11] is FOLR1 expression in MES-SA. The description is as above. It counts as cell-based, human. How it is done: as §7, §8
Data set [12] in a line: in vitro. As to conditions: human, MCAS ovarian cancer cells.
Procedure: Then, detached cells were suspended in the folic acid-free medium, and the cells were seeded to 175-cm^2 TC flasks at 25×10^5 cells/28 mL. After 24-hour incubation, 14 mL of the 3× low folic acid medium was added, and the final folic acid concentration was adjusted at approximately 22.7 nmol/L. Then, pemetrexed was added to the culture at the final concentration of 0 or 20 nmol/L, and the cells were cultured for further 72 hours.
The cultured cells were detached from the culture flasks using 0.02% EDTA solution (Nacalai), and the cell counts and the viability were measured using Vi-CELL XR 2.01 (Beckman Coulter).
The test system of data set [13] is ovarian cancer cell line MCAS. Kind of data set: ADCC activity against pemetrexed-treated MCAS using healthy donor PBMCs (LDH release). The format is cell-based, human. The note with it: for ADCC activity against MCAS cultured with pemetrexed versus cultured without pemetrexed: 20 nmol/L pemetrexed, P<0.05. Here is the method: (§9) These cells were adjusted at 1×10^4 cells/50 μL using ADCC measurement medium [phenol red-free RPMI1640 (GIBCO), 5% inactivated dFCS (GIBCO)] as target cell solutions.
(§10) Next, heparin-treated peripheral blood of a healthy donor was loaded into a LeucoSep lymphocyte separation tube (Greiner) filled with Lymphoprep (Cosmo Bio), and centrifuged at 1000×g for 20 minutes at room temperature.
(§11) After the centrifugation, the plasma fraction was removed, and the peripheral blood mononuclear cell (PBMC) layer was collected. Then, the cells were washed with the ADCC measurement medium. The PBMCs were adjusted at 2.5×10^5 cells/50 μL using the ADCC measurement medium as an effector cell solution.
HuRA15-7CTAcc antibody and MORAb-003 (farletuzumab) were used as anti-human FOLR1 humanized antibodies. The antibody solutions were prepared at 0.1, 1, 10, 100 and 1000 ng/mL with the ADCC measurement medium, so that the final concentrations of the assay became 0.033, 0.33, 3.3, 33 and 333 ng/mL.
(§12) Fifty μL of each the target cell solution, the effector cell solution, and the antibody solution, which were prepared as described above, were mixed in a U-bottom 96-well plate, so that the total volume of each well was 150 μL. After mixing the wells, the cells were precipitated by centrifugation at 50×g for five minutes at room temperature. These cells were reacted for four hours at 37° C.
(§13) After mixing the wells, the cells were precipitated again by centrifugation. Then, 50 μL of the supernatant of each well was dispensed to a new 96-well plate. The lactate dehydrogenase (LDH) activities of the dispensed supernatant solutions were measured using CytoTox 96 Non-Radioactive Cytotoxicity Assay (Promega) according to the instruction.
(§14) The ADCC activity was calculated by the following equation after subtracting the measured LDH activity value of the well containing the ADCC measurement medium only from the measured LDH activity value of all wells. These values were determined as the corrected LDH activity value of each well.
ADCC Activity (%)=100×(Exp−ET spo)/(T total−D−T spo) [Chem. 1]
Here, Exp is the corrected LDH activity value of a sample; ET spo is the corrected LDH activity value of the well in which the effector cell solution and the target cell solution were mixed; T total is the corrected LDH activity value of the well in which the target cells and the Lysis Solution attached to CytoTox 96 Non-Radioactive Cytotoxicity Assay were mixed; D is the corrected LDH activity value of the Lysis Solution; and T spo is the corrected LDH activity value of the well containing the target cells only.
(LDH in the medium is a marker of cell lysis.)

For data set [14], the system named is NSCLC cell line NCI-H2228. Nature of the data set: ADCC activity against pemetrexed-treated NCI-H2228 using healthy donor PBMCs (LDH release). The format is cell-based, human. As to conditions: for ADCC activity against NCI-H2228 cultured with pemetrexed versus cultured without pemetrexed: 1000 nmol/L pemetrexed, P<0.05. Here is the method: as §9, §10, §11
HuRA15-7CTAcc antibody and MORAb-003 (farletuzumab) were used as anti-human FOLR1 humanized antibodies.
as §12, §13, §14
ADCC Activity (%)=100×(Exp−ET spo)/(T total−D−T spo) [Chem. 1] […]
The ADCC activity against the NSCLC cell line NCI-H2228 was evaluated by a similar method to that in Example 3 except for using pemetrexed at the final concentration of 0, 20 or 1000 nmol/L in the culture.

Data set [15] deals with ovarian cancer. The note with it: cited from earlier work.
Data set [16] has as its system NSCLC. The note with it: patients with NSCLC; clinical trials terminated; cited from earlier work.
Where [17] appears, read: 1000 nmol/L pemetrexed in low folic acid medium.
The mark [18] stands for this setting: low folic acid medium, 0, 10 or 1000 nmol/L pemetrexed, 72 hours.

What is called viability is a per cent measure of how many cells are alive, often set against a control. As to `Nc1nc2[nH]cc(CCc3ccc(C(=O)N[C@@H](CCC(=O)O)C(=O)O)cc3)c2c(=O)[nH]1` [pemetrexed], the “expression level of FOLR1 relative to incubation with 0 nmol/L pemetrexed” value was “about 1.5 times” in data set [1] (10 nmol/L pemetrexed), roughly 2 times in [1] (1000 nmol/L pemetrexed), “about 1.5 times” in [2] (10 nmol/L pemetrexed) and roughly 2 times in [2] (1000 nmol/L pemetrexed). For the same molecule, the “expression level of FOLR1, dependence on pemetrexed concentration” value is on record as “higher concentration of pemetrexed induced higher expression level of FOLR1” in data set [3]; “higher concentration of pemetrexed induced higher expression level of FOLR1” in [4]; “higher concentration of pemetrexed induced higher expression level of FOLR1” in data set [5] (IGR-OV1, low folic acid medium, 0, 10 or 1000 nmol/L pemetrexed); “higher concentration of pemetrexed induced higher expression level of FOLR1” in data set [6] (low folic acid medium, 0, 10 or 1000 nmol/L pemetrexed); “higher concentration of pemetrexed induced higher expression level of FOLR1” in data set [8] (SKOV-3, low folic acid medium, 0, 10 or 1000 nmol/L pemetrexed); “higher pemetrexed treatment induced higher expression level of FOLR1” in data set [9] (setting [18]). Further, the “expression level of FOLR1, dependence on pemetrexed concentration” value in [10] (setting [18]) and in data set [11] (setting [18]) was “higher pemetrexed treatment induced higher expression level of FOLR1” each time. In addition, the “expression level of FOLR1 relative to incubation in the culture medium (NC)” value is reported as “about 2.5 times” in data set [5] (IGR-OV1, 1000 nmol/L pemetrexed in low folic acid medium); “about 7 times” in data set [6] (setting [17]); “about 2.5 times” in data set [8] (SKOV-3, 1000 nmol/L pemetrexed in low folic acid medium). Moreover, in data set [7], the “expression level of FOLR1 compared to incubation in the culture medium” value is given as “did not increase”. Moreover, the “expression level of FOLR1 relative to culture in the culture medium (NC)” value in [9] (setting [17]) is given as “approximately 3 times”; in [10] (setting [17]), “approximately 2 times”; in data set [11] (setting [17]) it was “approximately 3.5 times”. The viability at 72 h, 20 nmol/L in data set [12] came to 96.6%.

Take “MORAb-003: existing anti-human FOLR1 humanized IgG1 antibody, sequences described in WO2005/080431”: the “ADCC activity against MCAS cultured with pemetrexed versus cultured without pemetrexed” value in data set [13] (healthy donor 2-derived PBMCs, antibody 0.33, 3.3, 33 and 333 ng/mL) is reported as “significantly higher”. Moreover, the “ADCC activity against NCI-H2228 cultured with pemetrexed versus cultured without pemetrexed” value in [14] (antibody 0.0033, 3.3, 33 and 333 ng/mL) is on record as “significantly higher”. Besides, the clinical benefit result in data set [15] (patients with platinum-resistant ovarian cancer, clinical trials terminated) was “did not show benefit”; in data set [16] it was “did not show benefit”. Moreover, in [15] (patients with platinum-sensitive recurrent ovarian cancer), the clinical response result is given as “responses in some patients”.

B1: HuRA15-7CTAcc: anti-human FOLR1 humanized antibody, VH SEQ ID NO: 8, VL SEQ ID NO: 9, expressed in FUT8 knocked out CHO/DG44 (WO2014/087863) (antibody, V domains shown)
VH: EVQLVESGGGLVQPGGSLRLSCAASGFTFTDFYMNWVRQPPGKAPEWLGFIRNKANGYTTEFNPSVKGRFTISRDNSKNSLYLQMNSLKTEDTATYYCARTLYGYAYYYVMDAWGQGTLVTVSS
VL: DIQMTQSPSSLSASLGDRVTITCRTSEDIFRNLAWYQQKPGKAPKLLIYDTNRLADGVPSRFSGSGSGTDYTLTISSLQPEDFATYFCQQYDNYPLTFGQGTKLEIK
modifications: afucosylated; nonS_HuRA15-7CTVH_AA; nonS_HuRA15-7LV3_AA
B1: the “ADCC activity against MCAS cultured with pemetrexed versus cultured without pemetrexed” value in [13] (healthy donor 1-derived PBMCs, all the antibody concentrations) is listed as “significantly higher”; in data set [13] (healthy donor 2-derived PBMCs, antibody 0.033 and 0.33 ng/mL), “significantly higher”. In addition, the “ADCC activity, dependence on antibody concentration” value is “cytotoxicity was observed in association with the antibody concentration” in [13] (MCAS, PBMCs of two healthy donors, antibody 0.033-333 ng/mL) and “cytotoxicity was observed in association with the antibody concentration” in [14] (NCI-H2228, PBMCs of a healthy donor). Besides, the “ADCC activity against NCI-H2228 cultured with pemetrexed versus cultured without pemetrexed” value in data set [14] (all the antibody concentrations) is “significantly higher”.
